ChEMBL document CHEMBL5149986, “Spliceostatins and Derivatives: Chemical Syntheses and Biological Properties of Potent Splicing Inhibitors” (J Nat Prod, 2021)
Square brackets hold non-standard residues; d marks the D form. Peptide text beside a SMILES is read from it. * marks the point of attachment. Dolaproine = CO[C@@H]([C@@H]1CCCN1)[C@@H](C)C(=O)O; Dil = CC[C@H](C)[C@H](NC)[C@@H](CC(=O)O)OC; X1 = C[C@@H](N*)[C@@H](O)c1ccccc1; NMeV = CN[C@H](C(=O)O)C(C)C

How the values were obtained:
[1] = Inhibition of pre-mRNA splicing in human HeLa nuclear extract in presence of ATP; format: cell-free
L1210 = test: Cytotoxicity against mouse L1210 cells assessed as inhibition in cell growth; format: functional, cell-based
HCT-116 = test: Cytotoxicity against human HCT-116 cells assessed as inhibition in cell growth; format: functional, cell-based
HCT-116/VM46 = test: Cytotoxicity against human HCT116/VM46 cells assessed as inhibition in cell growth; format: functional, cell-based
[2] = Cytotoxicity against human Jurkat-TAg cells assessed as cell growth inhibition measured after 48 hrs; format: functional, cell-based
HeLa = test: Potency index, ratio of test compound IC50 to Spliceostatin A IC50 for inhibition of pre-mRNA splicing in human HeLa nuclear extract in presence of ATP
MES-SA/Dx5 = test: Cytotoxicity against human MES-SA/Dx5 cells assessed as inhibition in cell growth; format: functional, cell-based
MES-SA = test: Cytotoxicity against human MES-SA cells assessed as inhibition in cell growth; format: functional, cell-based
[3] = Cytotoxicity against HEK293T cells assessed as inhibition in cell growth; format: toxicity, cell-based, HEK-293T; conditions: human
MCF7 = test: Cytotoxicity against human MCF7 cells incubated for 7 to 10 days by MTS assay; format: functional; conditions: time 7-10 day

Row | SMILES | IC50 (MES-SA/Dx5) [nM] | IC50 (MES-SA) [nM] | IC50 [3] [nM] | further results
1 | CC(=O)O[C@@H](C)/C=C\C(=O)N[C@@H]1C[C@H](C)[C@H](C/C=C(C)/C=C/[C@H]2O[C@](C)(O)C[C@]3(CO3)[C@H]2O)O[C@@H]1C |  |  |  | IC50 [1]: 35000 nM
2 | CC(/C=C/[C@H]1OC(C)(C)C[C@@]2(CO2)[C@@H]1O)=C\C[C@@H]1O[C@H](C)[C@H](NC(=O)/C=C\[C@H](C)O)C[C@@H]1C |  |  |  | IC50 (L1210): 0.54 nM; IC50 (HCT-116): 9.7 nM; IC50 (HCT-116/VM46): 7.4 nM
3 | CO[C@]1(C)C[C@]2(CO2)[C@@H](O)[C@@H](/C=C/C(C)=C/C[C@@H]2O[C@H](C)[C@H](NC(=O)/C=C\[C@H](C)OC(C)=O)C[C@@H]2C)O1 |  |  |  | IC50 [1]: 1500 nM
4 | CC(=O)O[C@@H](C)/C=C\C(=O)N[C@@H]1C[C@H](C)[C@H](C/C=C(C)/C=C/[C@H]2O[C@@H](C)C[C@@]3(CO3)[C@@H]2O)O[C@@H]1C |  |  |  | IC50 [2]: 1.6 nM
5 | CC(=O)O[C@@H](C)/C=C\C(=O)N[C@@H]1C[C@H](C)[C@H](C/C=C(C)/C=C/[C@H]2O[C@](C)(O)CC3(CC3)[C@@H]2O)O[C@@H]1C |  |  |  | IC50 [2]: > 4000 nM
6 | CC(=O)O[C@@H](C)/C=C\C(=O)N[C@@H]1C[C@H](C)[C@H](C/C=C(C)/C=C/[C@H]2OC3(CC3)C[C@@]3(CO3)[C@@H]2O)O[C@@H]1C |  |  |  | IC50 [1]: 20 nM; Ratio IC50 (HeLa): 2
7 | CC(=O)O[C@@H](C)/C=C\C(=O)N[C@H]1C[C@H](C)[C@H](C/C=C(C)/C=C/[C@H]2O[C@](C)(O)C[C@]3(CO3)[C@H]2O)O[C@@H]1C |  |  |  | IC50 [1]: 20000 nM
8 | CC(=O)O[C@@H](C)/C=C\C(=O)N[C@@H]1C[C@H](C)[C@H](C/C=C(C)/C=C/[C@H]2O[C@H](CC(=O)OC(C)(C)C)C[C@@]3(CO3)[C@@H]2O)O[C@@H]1C | 0.48 | 1.37 | 0.005 | 
9 | CC(=O)O[C@@H](C)/C=C\C(=O)N[C@@H]1C[C@H](C)[C@H](C/C=C(C)/C=C/[C@H]2O[C@H](CCO)C[C@@]3(CO3)[C@@H]2O)O[C@@H]1C | 3.21 | 0.072 | 0.007 | 
10 | CC(/C=C/[C@H]1OC(C)(C)C[C@@]2(CO2)[C@@H]1O)=C\C[C@@H]1O[C@H](C)[C@H](NC(=O)/C=C\[C@H](C)OC(=O)N2CCCCC2)C[C@@H]1C |  |  |  | IC50 (L1210): 0.6 nM; IC50 (HCT-116): 0.68 nM; IC50 (HCT-116/VM46): 0.59 nM
11 | CC(=O)O[C@@H](C)/C=C\C(=O)N[C@@H]1C[C@H](C)[C@H](C/C=C(C)/C=C/[C@H]2OC(C)(C)C[C@@]3(CO3)[C@@H]2O)O[C@@H]1C |  |  |  | GI50 (MCF7): 0.0102 nM; IC50 (L1210): 0.44 nM; IC50 (HCT-116): 0.56 nM; IC50 (HCT-116/VM46): 0.51 nM
12 | CC(/C=C/[C@H]1O[C@H](C)C[C@@]2(CO2)[C@@H]1O)=C\C[C@@H]1O[C@H](C)[C@H](NC(=O)/C=C\[C@H](C)OC(=O)N(C)C)C[C@@H]1C | 0.14 | 0.04 | 0.003 | 
13 | CC(=O)N[C@@H]1C[C@H](C)[C@H](C/C=C(C)/C=C/[C@H]2O[C@](C)(O)C[C@@]3(CO3)[C@@H]2O)O[C@@H]1C |  |  |  | IC50 [2]: 1700 nM
14 | CC(/C=C/[C@H]1OC(C)(C)C[C@@]2(CO2)[C@@H]1O)=C\C[C@@H]1O[C@H](C)[C@H](NC(=O)/C=C\[C@H](C)OC(=O)N2CCSCC2)C[C@@H]1C |  |  |  | IC50 (L1210): 0.51 nM; IC50 (HCT-116): 0.48 nM; IC50 (HCT-116/VM46): 0.52 nM
15 | CNC(=O)O[C@@H]1[C@@H](/C=C/C(C)=C/C[C@@H]2O[C@H](C)[C@H](NC(=O)/C=C\[C@H](C)OC(C)=O)C[C@@H]2C)O[C@H](OC)C[C@@]12CO2 | 76.1 | 76.7 | 10.1 | 
16 | CC(/C=C/[C@H]1O[C@H](CC(=O)O)C[C@@](O)(CCl)[C@@H]1O)=C\C[C@@H]1O[C@H](C)[C@H](NC(=O)/C=C\[C@H](C)OC(=O)C(C)C)C[C@@H]1C [THAILANSTATIN C] | 298 | 137 | 64.7 | 
17 | CO[C@@H]1C[C@@]2(CO2)[C@H](O)[C@@H](/C=C/C(C)=C/C[C@@H]2O[C@H](C)[C@H](NC(=O)/C=C\[C@H](C)NC(=O)C(C)C)C[C@@H]2C)O1 | 384 | 6.16 | 0.058 | 
18 | CC(=O)O[C@@H](C)/C=C\C(=O)N[C@H]1C[C@H](C)[C@H](C/C=C(C)/C=C/[C@H]2O[C@](C)(O)C[C@@]3(CO3)[C@@H]2O)O[C@@H]1C |  |  |  | IC50 [1]: 1000 nM
19 | CC(/C=C/[C@H]1O[C@H](C)C[C@@]2(CO2)[C@@H]1O)=C\C[C@@H]1O[C@H](C)[C@H](NC(=O)/C=C\[C@H](C)NC(=O)C(C)C)C[C@@H]1C | 4.91 | 0.23 | 0.015 | 

Row | SMILES | IC50 (MES-SA/Dx5) [nM] | IC50 (MES-SA) [nM] | IC50 [3] [nM] | further results
20 | CO[C@]1(C)C[C@@]2(CO2)[C@H](O)[C@@H](/C=C/C(C)=C/C[C@@H]2O[C@H](C)[C@@H](NC(=O)/C=C\[C@H](C)OC(C)=O)C[C@@H]2C)O1 |  |  |  | IC50 [1]: 1000 nM
21 | CO[C@@H]1C[C@@]2(CN2)[C@H](O)[C@@H](/C=C/C(C)=C/C[C@@H]2O[C@H](C)[C@H](NC(=O)/C=C\[C@H](C)OC(C)=O)C[C@@H]2C)O1 | 210 | 0.6 | 0.144 | 
22 | CC(=O)O[C@@H](C)/C=C\C(=O)N[C@@H]1C[C@H](C)[C@H](C/C=C(C)/C=C/[C@H]2O[C@](C)(O)C[C@@]3(CO3)[C@@H]2O)O[C@@H]1C |  |  |  | IC50 [2]: 2 nM; GI50 (MCF7): 1.1 nM; IC50 [1]: 50 nM
23 | CC(/C=C/[C@H]1O[C@H](C)C[C@@]2(CO2)[C@@H]1O)=C\C[C@@H]1O[C@H](C)[C@H](NC(=O)/C=C\[C@H](C)OC(=O)N2CCCCC2)C[C@@H]1C | 0.57 | 0.5 | 0.07 | 
24 | CC(/C=C/[C@H]1O[C@H](CC(=O)OC2CC2)C[C@@]2(CO2)[C@@H]1O)=C\C[C@@H]1O[C@H](C)[C@H](NC(=O)/C=C\[C@H](C)OC(=O)C(C)C)C[C@@H]1C | 16.1 | 2.15 | 0.218 | 
25 | CC(/C=C/[C@H]1O[C@H](C)C[C@@]2(CO2)[C@@H]1O)=C\C[C@@H]1O[C@H](C)[C@H](NC(=O)/C=C\[C@H](C)NC(=O)N2CCCCC2)C[C@@H]1C | 64 | 3.19 | 0.041 | 
26 | CC(=O)O[C@@H](C)/C=C\C(=O)N[C@@H]1C[C@H](C)[C@H](C/C=C(C)/C=C/[C@H]2O[C@H](CCNC(=O)OC(C)(C)C)C[C@@]3(CO3)[C@@H]2O)O[C@@H]1C | 1.8 | 0.13 | 0.004 | 
27 | CC(=O)O[C@@H](C)/C=C\C(=O)N[C@@H]1C[C@H](C)[C@H](C/C=C(C)/C=C/[C@H]2O[C@H](CC(C)(C)O)C[C@@]3(CO3)[C@@H]2O)O[C@@H]1C | 2.96 | 0.64 | 0.08 | 
28 | CO[C@@H]1C[C@@]2(CO2)[C@H](O)[C@@H](/C=C/C(C)=C/C[C@@H]2O[C@H](C)[C@H](NC(=O)/C=C\[C@H](C)OC(=O)N3CCCCC3)C[C@@H]2C)O1 | 3.35 | 3.71 | 0.11 | 
29 | COC(=O)C[C@@H]1C[C@@]2(CO2)[C@H](O)[C@@H](/C=C/C(C)=C/C[C@@H]2O[C@H](C)[C@H](NC(=O)/C=C\[C@H](C)OC(C)=O)C[C@@H]2C)O1 | 3.6 | 0.32 | 0.36 | IC50 [1]: 400 nM
30 | CC(=O)O[C@@H](C)/C=C\C(=O)N[C@@H]1C[C@H](C)[C@H](C/C=C(C)/C=C/[C@H]2O[C@H](CC(=O)OC(C)(C)C)C[C@@](O)(CCl)[C@@H]2O)O[C@@H]1C | 5.16 | 14.9 | 0.033 | 
31 | CCOC(=O)/C=C/C[C@@H]1C[C@@]2(CO2)[C@H](O)[C@@H](/C=C/C(C)=C/C[C@@H]2O[C@H](C)[C@H](NC(=O)/C=C\[C@H](C)OC(=O)C(C)C)C[C@@H]2C)O1 | 2.73 | 2.96 | 0.09 | 
32 | CO[C@@H]1C[C@@]2(CO2)[C@H](OC(C)=O)[C@@H](/C=C/C(C)=C/C[C@@H]2O[C@H](C)[C@H](NC(=O)/C=C\[C@H](C)OC(C)=O)C[C@@H]2C)O1 | 1.98 | 1.76 | 0.031 | 
33 | CC(=O)O[C@H]1C(=O)[C@@]2(C)[C@H]([C@H](OC(=O)c3ccccc3)[C@]3(O)C[C@H](OC(=O)[C@H](O)[C@@H](NC(=O)c4ccccc4)c4ccccc4)C(C)=C1C3(C)C)[C@]1(OC(C)=O)CO[C@@H]1C[C@@H]2O [PACLITAXEL] | > 400 | 2.47 | 1.76 | 
34 | CC(/C=C/[C@H]1OC(C)(C)C[C@@]2(CO2)[C@@H]1O)=C\C[C@@H]1O[C@H](C)[C@H](NC(=O)/C=C\[C@H](C)OC(=O)N2CCOCC2)C[C@@H]1C |  |  |  | IC50 (L1210): 7.8 nM; IC50 (HCT-116): 0.49 nM; IC50 (HCT-116/VM46): 0.55 nM
35 | COC(=O)C[C@@H]1C[C@@]2(CO2)[C@H](O)[C@@H](/C=C/C(C)=C/C[C@@H]2O[C@H](C)[C@H](NC(=O)/C=C\[C@H](C)NC(=O)C(C)C)C[C@@H]2C)O1 | 384 | 6.16 | 0.058 | 
36 | CC[C@H](C)[C@@H]([C@@H](CC(=O)N1CCC[C@H]1[C@H](OC)[C@@H](C)C(=O)N[C@H](C)[C@@H](O)c1ccccc1)OC)N(C)C(=O)[C@@H](NC(=O)[C@@H](NC)C(C)C)C(C)C (H-[NMeV]V[Dil][Dolaproine]-X1) | 88.2 | 0.096 | 0.068 | 
37 | CO[C@]1(C)C[C@@]2(CO2)[C@H](O)[C@@H](/C=C/C(C)=C/C[C@@H]2O[C@H](C)[C@H](NC(=O)/C=C\[C@H](C)OC(C)=O)C[C@@H]2C)O1 |  |  |  | IC50 [1]: 10 nM
